# Experimental data taken from patent US11045554B1 (National Technology & Engineering Solutions of Sandia, LLC, priority 2018, dated 2021).
# pIC50: −log10 of the molar value.
# Key:
# HeLa cells = type: cell-based
# TC-83 virus = test: microbe, parasite or virus in culture; type: cell-based, Venezuelan equine encephalitis virus (VEEV)
# [1] = tested on: VEEV (ZPC738 virulent strain); test: microbe, parasite or virus in culture; type: cell-based, Venezuelan equine encephalitis virus (VEEV)
# TC-83 [2] = tested on: TC-83; parameters: species or system C3H/HeN mice; settings: mouse, in vivo
# [3] = tested on: VEEV vaccine strain (TC-83); settings: cited from earlier work
# TC-83 [4] = settings: mouse, in vivo, ip; cited from earlier work
# [5] = pH 7.4; cited from earlier work
# [6] = Venezuelan equine encephalitis virus, HeLa, 24 h
smiles,measurement,setting,value
"O=C(N/N=C/c1ccc(O)c(O)c1)c1cc2ccccc2cc1O [DYN, dynasore]",LC-MSN internalization in presence of inhibitor (in words),HeLa cells,clearly inhibited
same,reduction of the percentage of cells that internalized LC-MSNs,HeLa cells,71%
"CCCCCCCCCCCCCC(=O)O[C@@H]1[C@@H](C)[C@@]2(O)[C@@H](C=C(CO)C[C@]3(O)C(=O)C(C)=C[C@@H]23)[C@@H]2C(C)(C)[C@]12OC(C)=O [PMA, phorbol 12-myristate 13-acetate]",LC-MSN internalization in presence of inhibitor (in words),HeLa cells,not
"CO/C1=C\C(C)=C\[C@@H](C)[C@@H](O)[C@@H](C)C/C(C)=C/C=C/[C@H](OC)[C@@H]([C@@H](C)[C@@H](O)[C@H](C)[C@@]2(O)C[C@@H](O)[C@H](C)[C@@H](C(C)C)O2)OC1=O [BAF, bafilomycin A]",LC-MSN internalization / uptake in presence of inhibitor (in words),HeLa cells,almost completely inhibited
same,LC-MSN internalization in presence of inhibitor (in words),HeLa cells,clearly inhibited
Oc1ccc2ccccc2c1SSc1c(O)ccc2ccccc12 [IPA-3],LC-MSN internalization in presence of inhibitor (in words),HeLa cells,not
"CN1CCN(C)C(=Nc2ccc([N+](=O)[O-])cc2C(=O)Nc2ccccc2)C1 [ML336, 2-[(1,4-dimethylpiperazin-2-ylidene)amino]-5-nitro-N-phenylbenzamide]",TC-83 viral inhibition (in words),"TC-83 virus; HeLa cells, increasing concentration or LC-MSN mass",dose-dependent manner
same,pIC50,TC-83 virus; [6],6.79
same,VEEV viral inhibition (in words),"[1]; HeLa cells, 24 hours",dose-dependent manner
same,pIC50,[1]; [6],7.82
same,brain viral load / titer vs PBS (in words),TC-83 [2],not significantly different from PBS treated animals
same,reduction of viral titer,[3]; at nanomolar concentrations,"630,000 fold"
same,EC90,[3],0.17 µM
same,survival rate,TC-83 [4],71%
same,solubility,[5],0.04 mg/mL
"CN(C)CCCN1c2ccccc2Sc2ccc(Cl)cc21 [CPZ, chlorpromazine]",LC-MSN internalization in presence of inhibitor (in words),HeLa cells,clearly inhibited
same,reduction of the percentage of cells that internalized LC-MSNs,HeLa cells,84%
